Measured values as given in US10172868B2, “Substituted quinazolines for inhibiting kinase activity” (NeuPharma, Inc., priority 2013, dated 2019).

Experiments:
[1] = target: EGFR (ErbB1) L858R (Homo sapiens (Human), UniProt P00533, L858R); experiment: Z'-LYTE kinase inhibition assay, EGFR L858R; format: biochemical; conditions: read-out: % inhibition against EGFR L858R (Compound at 1 μM)
Method: Inhibitory activities of compounds against BTK, EGFR and EGFR mutants (EGFR L858R, EGFR T790M, EGFR L858R/T790M), FGFR1, FGFR2, JAK2, JAK3 and KDR were measured by Invitrogen using Z'-LYTE® Method as briefly described in the following. Test Compounds are screened in 1% DMSO (final) in the well. For 10 point titrations, 3-fold serial dilutions are conducted from the starting concentration. All ATP Solutions are diluted to a 4× working concentration in Kinase Buffer (50 mM HEPES pH 7.5, 0.01% BRIJ-35, 10 mM MgCl2, 1 mM EGTA). Peptide/Kinase Mixtures are diluted to a 2× working concentration in the appropriate Kinase Buffers as described below. (ii) Peptide/Kinase Mixtures for Measurement of EGFR (ErbB1) L858R: The 2×EGFR (ErbB1) L858R/[…] mixture is prepared in 50 mM HEPES pH 7.5, 0.01% BRIJ-35, 10 mM MgCl2, 4 mM MnCl2, 1 mM EGTA, 2 mM DTT. The final 10 μL Kinase Reaction consists of 0.2-1.68 ng EGFR (ErbB1) L858R and 2 μM […] in 50 mM HEPES pH 7.5. 0.01% BRIJ-35, 10 mM MgCl2. 2 mM MnCl2, 1 mM EGTA, 1 mM DTT. After the 1 hour Kinase Reaction incubation, 5 μL of a 1:64 dilution of Development Reagent B is added. Reaction starts by 30-second shaking of mixture consisting of 2.5 μL 4× test compound, […] 2× kinase reaction mixture and 2.5 μL 4×ATP Solution on Bar-coded Corning, low volume NBS, black 384-well plate (Corning Cat. #3676). Then the mixture is incubated for 60-minute at room temperature for the kinase reaction, followed by addition of 5 μL of a 1:1024 dilution of development reagent A and 30-second plate shake. The mixture is then incubated for another 60-minute at room temperature for development reaction. Finally fluorescence is read by plate reader.

[2] = target: JAK3 (Homo sapiens (Human), UniProt P52333); experiment: Z'-LYTE kinase inhibition assay, JAK3; format: biochemical; conditions: read-out: IC50 against JAK3
Sequence of JAK3 (P52333 whole entry): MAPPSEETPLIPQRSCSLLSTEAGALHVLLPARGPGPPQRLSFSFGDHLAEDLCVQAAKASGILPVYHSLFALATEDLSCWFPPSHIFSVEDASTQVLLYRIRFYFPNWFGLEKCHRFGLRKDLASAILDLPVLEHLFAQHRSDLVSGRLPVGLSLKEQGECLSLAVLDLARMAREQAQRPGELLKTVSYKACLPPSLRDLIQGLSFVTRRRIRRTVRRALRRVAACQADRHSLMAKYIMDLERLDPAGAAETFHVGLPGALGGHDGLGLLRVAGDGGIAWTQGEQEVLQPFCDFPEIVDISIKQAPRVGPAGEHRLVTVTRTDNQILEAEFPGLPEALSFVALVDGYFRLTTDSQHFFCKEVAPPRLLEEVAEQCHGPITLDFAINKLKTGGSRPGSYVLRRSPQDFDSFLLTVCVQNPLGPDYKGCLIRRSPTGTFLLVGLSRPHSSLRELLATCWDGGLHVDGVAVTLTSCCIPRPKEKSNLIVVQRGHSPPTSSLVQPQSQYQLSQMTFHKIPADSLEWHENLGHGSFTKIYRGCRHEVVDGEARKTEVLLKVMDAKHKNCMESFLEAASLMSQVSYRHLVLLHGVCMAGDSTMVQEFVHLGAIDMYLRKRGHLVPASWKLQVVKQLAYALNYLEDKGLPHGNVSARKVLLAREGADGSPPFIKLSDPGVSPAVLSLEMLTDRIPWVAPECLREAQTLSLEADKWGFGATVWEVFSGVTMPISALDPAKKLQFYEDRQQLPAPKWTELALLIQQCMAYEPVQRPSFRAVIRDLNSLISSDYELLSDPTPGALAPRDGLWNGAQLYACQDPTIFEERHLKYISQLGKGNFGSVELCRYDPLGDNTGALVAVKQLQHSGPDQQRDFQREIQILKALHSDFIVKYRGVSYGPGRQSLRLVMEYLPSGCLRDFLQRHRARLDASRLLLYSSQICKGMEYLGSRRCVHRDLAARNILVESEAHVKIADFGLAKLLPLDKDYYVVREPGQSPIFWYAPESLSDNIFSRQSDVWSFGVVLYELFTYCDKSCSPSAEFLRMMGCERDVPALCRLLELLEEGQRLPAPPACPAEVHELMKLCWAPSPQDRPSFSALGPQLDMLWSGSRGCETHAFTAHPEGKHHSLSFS
Method: (§1) Inhibitory activities of compounds against BTK, EGFR and EGFR mutants (EGFR L858R, EGFR T790M, EGFR L858R/T790M), FGFR1, FGFR2, JAK2, JAK3 and KDR were measured by Invitrogen using Z'-LYTE® Method as briefly described in the following.
(§2) Test Compounds are screened in 1% DMSO (final) in the well. For 10 point titrations, 3-fold serial dilutions are conducted from the starting concentration. All ATP Solutions are diluted to a 4× working concentration in Kinase Buffer (50 mM HEPES pH 7.5, 0.01% BRIJ-35, 10 mM MgCl2, 1 mM EGTA). Peptide/Kinase Mixtures are diluted to a 2× working concentration in the appropriate Kinase Buffers as described below.
(v) Peptide/Kinase Mixtures for Measurement of JAK3:
The 2×JAK3/Tyr 06 mixture is prepared in 50 mM HEPES pH 7.5, 0.01% BRIJ-35, 10 mM MgCl2, 1 mM EGTA. The final 10 μL Kinase Reaction consists of 0.29-1.34 ng JAK3 and 2 μM Tyr 06 in 50 mM HEPES pH 7.5, 0.010/% BRIJ-35, 10 mM MgCl2, 1 mM EGTA. After the 1 hour Kinase Reaction incubation, 5 μL of a 1:64 dilution of Development Reagent A is added.
(§3) Reaction starts by 30-second shaking of mixture consisting of 2.5 μL 4× test compound, […] 2× kinase reaction mixture and 2.5 μL 4×ATP Solution on Bar-coded Corning, low volume NBS, black 384-well plate (Corning Cat. #3676). Then the mixture is incubated for 60-minute at room temperature for the kinase reaction, followed by addition of 5 μL of a 1:1024 dilution of development reagent A and 30-second plate shake. The mixture is then incubated for another 60-minute at room temperature for development reaction. Finally fluorescence is read by plate reader.
(§4) To determine IC50 of a compound against EGFR, EGFR mutant and other kinases, a series of concentrations of the compound were tested for the inhibition. […] The scale utilized in Table 4 is as follows: +++ less than 100 nM, ++ 100-500 nM and + greater than 500 nM.

[3] = target: KDR (VEGFR2) (Homo sapiens (Human), UniProt P35968); experiment: Z'-LYTE kinase inhibition assay, KDR; format: biochemical; conditions: read-out: IC50 against KDR
Sequence of KDR (VEGFR2) (P35968 20-1356): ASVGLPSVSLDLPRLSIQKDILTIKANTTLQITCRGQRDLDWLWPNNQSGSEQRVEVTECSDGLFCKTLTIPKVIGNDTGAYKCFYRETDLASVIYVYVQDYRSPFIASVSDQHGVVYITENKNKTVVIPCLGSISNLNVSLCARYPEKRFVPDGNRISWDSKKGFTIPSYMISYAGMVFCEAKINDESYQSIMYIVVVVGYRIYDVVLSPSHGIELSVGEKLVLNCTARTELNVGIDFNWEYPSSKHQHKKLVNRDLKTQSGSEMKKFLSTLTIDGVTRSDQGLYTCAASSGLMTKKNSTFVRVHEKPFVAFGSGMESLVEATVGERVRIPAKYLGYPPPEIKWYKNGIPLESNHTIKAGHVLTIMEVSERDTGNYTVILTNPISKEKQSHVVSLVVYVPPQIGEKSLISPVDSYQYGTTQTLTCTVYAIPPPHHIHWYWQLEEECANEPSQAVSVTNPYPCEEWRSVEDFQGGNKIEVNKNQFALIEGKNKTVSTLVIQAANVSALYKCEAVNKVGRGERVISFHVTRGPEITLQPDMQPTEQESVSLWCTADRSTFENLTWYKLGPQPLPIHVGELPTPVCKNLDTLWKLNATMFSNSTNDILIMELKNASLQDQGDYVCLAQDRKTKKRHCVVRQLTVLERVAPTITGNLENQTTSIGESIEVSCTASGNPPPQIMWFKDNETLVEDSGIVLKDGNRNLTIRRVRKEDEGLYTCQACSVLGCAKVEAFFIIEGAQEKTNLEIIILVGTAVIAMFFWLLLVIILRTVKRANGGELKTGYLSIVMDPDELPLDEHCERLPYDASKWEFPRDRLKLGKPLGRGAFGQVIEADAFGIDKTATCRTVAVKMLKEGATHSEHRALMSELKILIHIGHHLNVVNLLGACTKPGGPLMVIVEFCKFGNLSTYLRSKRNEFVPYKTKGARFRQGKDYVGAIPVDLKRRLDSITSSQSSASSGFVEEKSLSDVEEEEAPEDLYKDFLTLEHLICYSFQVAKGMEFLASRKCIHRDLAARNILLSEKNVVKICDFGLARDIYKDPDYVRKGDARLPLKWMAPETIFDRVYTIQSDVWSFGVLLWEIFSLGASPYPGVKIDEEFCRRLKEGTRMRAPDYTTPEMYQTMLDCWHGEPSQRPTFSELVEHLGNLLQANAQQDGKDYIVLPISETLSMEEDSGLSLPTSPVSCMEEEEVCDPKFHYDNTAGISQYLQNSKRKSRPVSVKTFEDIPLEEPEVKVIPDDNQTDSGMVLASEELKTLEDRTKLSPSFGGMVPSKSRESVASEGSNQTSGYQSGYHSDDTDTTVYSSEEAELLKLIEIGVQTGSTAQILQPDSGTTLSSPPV
Method: as §1, §2
(v) Peptide/Kinase Mixtures for Measurement of KDR (VEGFR2):
The 2×KDR (VEGFR2)/Tyr 01 mixture is prepared in 50 mM HEPES pH 7.5, 0.01% BRIJ-35, 10 mM MgCl2, 1 mM EGTA. The final 10 μL Kinase Reaction consists of 0.5-11.7 ng KDR (VEGFR2) and 2 μM Tyr 01 in 50 mM HEPES pH 7.5, 0.01% BRIJ-35, 10 mM MgCl2, 1 mM EGTA. After the 1 hour Kinase Reaction incubation, 5 μL of a 1:256 dilution of Development Reagent B is added.
as §3, §4

[4] = system: H1975 tumor xenografts; experiment: Inhibition of tumor growth in H1975 xenograft model; format: in vivo, BALB/c female nude mice; conditions: QD x 14; for Tumor Volume Pre-treatment: baseline before treatment
Method: H1975 cells were implanted in BALB/c female nude mice and grown as tumor xenografts. When tumors achieved 120-200 mm^3, mice were assigned into treatment and control groups using randomized block design based upon their tumor volumes. Each group contained 6 tumor-bearing mice. Tumors were measured twice weekly in two dimensions using a caliper, and the tumor volume was calculated from two-dimensional measurements using the equation V=0.5×a×b^2 where a and b are the long and short diameters of the tumor, respectively. Relative tumor volume (RTV) was defined as TVt/TVi, the ratio of the volume on a given day (TVt) and the volume at the start of treatment (TVi). Relative tumor growth rate (T/C) was defined as RTVT/RTVC, the ratio of relative tumor volume of treatment group (RTVT) and relative tumor volume of control group (RTVC) on a given day.

[5] = 30 mg/kg, Intraperitoneal injection

Sequence of EGFR (ErbB1) L858R (P00533 25-1210 L858R): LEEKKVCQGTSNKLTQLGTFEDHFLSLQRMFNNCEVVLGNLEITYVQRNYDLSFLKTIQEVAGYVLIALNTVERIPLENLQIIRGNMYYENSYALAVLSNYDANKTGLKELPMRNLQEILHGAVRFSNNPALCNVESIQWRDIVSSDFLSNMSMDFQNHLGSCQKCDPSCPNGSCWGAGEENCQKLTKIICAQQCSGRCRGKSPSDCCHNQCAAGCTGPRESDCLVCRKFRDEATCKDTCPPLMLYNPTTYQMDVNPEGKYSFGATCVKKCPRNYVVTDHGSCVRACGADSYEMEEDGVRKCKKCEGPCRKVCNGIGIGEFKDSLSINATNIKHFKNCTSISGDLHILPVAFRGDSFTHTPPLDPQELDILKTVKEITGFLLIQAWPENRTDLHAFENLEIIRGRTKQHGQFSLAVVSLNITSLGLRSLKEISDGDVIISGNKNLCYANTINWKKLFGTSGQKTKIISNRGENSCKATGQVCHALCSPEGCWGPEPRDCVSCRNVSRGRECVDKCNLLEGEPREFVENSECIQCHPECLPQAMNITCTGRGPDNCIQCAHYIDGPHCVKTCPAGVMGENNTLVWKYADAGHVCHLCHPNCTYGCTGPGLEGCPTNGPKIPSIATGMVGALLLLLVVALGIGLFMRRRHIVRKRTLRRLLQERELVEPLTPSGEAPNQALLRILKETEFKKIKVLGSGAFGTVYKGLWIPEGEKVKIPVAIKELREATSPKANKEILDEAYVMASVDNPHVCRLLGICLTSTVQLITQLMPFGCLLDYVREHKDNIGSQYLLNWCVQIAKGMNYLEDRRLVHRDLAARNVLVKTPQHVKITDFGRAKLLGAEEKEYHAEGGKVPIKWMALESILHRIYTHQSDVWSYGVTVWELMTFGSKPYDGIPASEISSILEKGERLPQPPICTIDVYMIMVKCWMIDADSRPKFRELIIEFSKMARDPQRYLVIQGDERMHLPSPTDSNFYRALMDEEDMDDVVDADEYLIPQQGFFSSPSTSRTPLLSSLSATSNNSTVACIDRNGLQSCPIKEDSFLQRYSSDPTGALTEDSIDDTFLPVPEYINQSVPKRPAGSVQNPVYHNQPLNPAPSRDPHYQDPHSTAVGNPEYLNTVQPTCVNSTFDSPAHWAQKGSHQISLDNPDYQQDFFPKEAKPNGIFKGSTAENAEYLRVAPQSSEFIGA

Clc1cccc(-c2cccc3cnc(Nc4ccc(N5CCOCC5)cc4)nc23)c1 [Example C008, 8-(3-chlorophenyl)-N-(4-morpholinophenyl)quinazolin-2-amine]
inhibition at 1 µM [1]: < 50%

C=CC(=O)Nc1cccc(-c2cccc3cnc(Nc4ccc(N5CCN(C)CC5)nc4)nc23)c1 [Example C041, N-(3-(2-((6-(4-methylpiperazin-1-yl)pyridin-3-yl)amino)quinazolin-8-yl)phenyl)acrylamide]
IC50 [2]: < 100 nM | IC50 [3]: < 100 nM | T/C (relative tumor growth rate) [4, 5]: 48.7% | Tumor Volume Post-treatment [4, 5]: 1021.2 mm^3 | Tumor Volume Pre-treatment [4, 5]: 151.7 mm^3

c1ccc(-c2cccc3cnc(Nc4ccc(N5CCOCC5)cc4)nc23)cc1 [Example C004, N-(4-morpholinophenyl)-8-phenylquinazolin-2-amine]
inhibition at 1 µM [1]: < 50%

C=CC(=O)Nc1cccc(-c2cccc3cnc(Nc4ccc(N5CCN(C)CC5)cc4F)nc23)c1 [Example C044, N-(3-(2-((2-fluoro-4-(4-methylpiperazin-1-yl)phenyl)amino)quinazolin-8-yl)phenyl)acrylamide]
IC50 [2]: < 100 nM

C=CC(=O)Nc1cccc(-c2cccc3cnc(Nc4ccc(N5CCN(C)CC5)cc4OC)nc23)c1 [Example C003, N-(3-(2-((2-methoxy-4-(4-methylpiperazin-1-yl)phenyl)amino)quinazolin-8-yl)phenyl)acrylamide]
inhibition at 1 µM [1]: > 50%

C=CC(=O)Nc1cccc(-c2cccc3cnc(Nc4ccc(N5CCOCC5)cc4OC)nc23)c1 [Example C002, N-(3-(2-((2-methoxy-4-morpholinophenyl)amino)quinazolin-8-yl)phenyl)acrylamide]
inhibition at 1 µM [1]: < 50%

C=CC(=O)Nc1cccc(-c2cccc3cnc(Nc4ccc(N5CCN(C)CC5)cc4)nc23)c1 [Example C021, N-(3-(2-((4-(4-methylpiperazin-1-yl)phenyl)amino)quinazolin-8-yl)phenyl)acrylamide]
IC50 [2]: < 100 nM | IC50 [3]: < 100 nM | T/C (relative tumor growth rate) ([4]; 60 mg/kg, Oral): 30.5% | Tumor Volume Post-treatment ([4]; 60 mg/kg, Oral): 633.5 mm^3 | Tumor Volume Pre-treatment ([4]; 60 mg/kg, Oral): 152.5 mm^3

C=CC(=O)Nc1cccc(-c2nccc3cnc(Nc4ccc(N5CCOCC5)cc4)nc23)c1 [Example C012, N-(3-(2-((4-morpholinophenyl)amino)pyrido[3,4-d]pyrimidin-8-yl)phenyl)acrylamide]
inhibition at 1 µM [1]: < 50%

Fc1cccc(-c2cccc3cnc(Nc4ccc(N5CCOCC5)cc4)nc23)c1 [Example C009, 8-(3-fluorophenyl)-N-(4-morpholinophenyl)quinazolin-2-amine]
inhibition at 1 µM [1]: < 50%

C=CC(=O)Nc1cccc(-c2nccc3c(N)nc(Nc4ccc(N5CCOCC5)cc4)nc23)c1 [Example C005, N-(3-(4-amino-2-((4-morpholinophenyl)amino)pyrido[3,4-d]pyrimidin-8-yl)phenyl)acrylamide]
inhibition at 1 µM [1]: > 50%

Fc1ccccc1-c1cccc2cnc(Nc3ccc(N4CCOCC4)cc3)nc12 [Example C010, 8-(2-fluorophenyl)-N-(4-morpholinophenyl)quinazolin-2-amine]
inhibition at 1 µM [1]: < 50%

Fc1ccc(Cl)cc1-c1cccc2cnc(Nc3ccc(N4CCOCC4)cc3)nc12 [Example C007, 8-(5-chloro-2-fluorophenyl)-N-(4-morpholinophenyl)quinazolin-2-amine]
inhibition at 1 µM [1]: < 50%

Clc1ccccc1-c1cccc2cnc(Nc3ccc(N4CCOCC4)cc3)nc12 [Example C011, 8-(2-chlorophenyl)-N-(4-morpholinophenyl)quinazolin-2-amine]
inhibition at 1 µM [1]: < 50%

C=CC(=O)Nc1cccc(-c2cccc3cnc(Nc4ccc(N5CCOCC5)cc4)nc23)c1 [Example C001, N-(3-(2-((4-morpholinophenyl)amino)quinazolin-8-yl)phenyl)acrylamide]
inhibition at 1 µM [1]: > 50%

C=CC(=O)Nc1cccc(-c2cccc3cnc(Nc4ccc(N5CCN(CCO)CC5)cc4)nc23)c1 [Example C059, N-(3-(2-((4-(4-(2-hydroxyethyl)piperazin-1-yl)phenyl)amino)quinazolin-8-yl)phenyl)acrylamide]
IC50 [2]: < 100 nM | IC50 [3]: < 100 nM | T/C (relative tumor growth rate) ([4]; 60 mg/kg, Oral): 35.3% | Tumor Volume Post-treatment ([4]; 60 mg/kg, Oral): 746.4 mm^3 | Tumor Volume Pre-treatment ([4]; 60 mg/kg, Oral): 151.6 mm^3
